Data as given in patent publication US12479818B2, “Treatment of fibrosis with IRE1 small molecule inhibitors” (Cornell University, priority 2019, dated 2025).

Key:
IRE1a [1] = target: T1, IRE1a (Homo sapiens, UniProt O75460); assay: In vitro FRET assay (IRE1a cleavage of XBP1 RNA probe); assay type: biochemical; set-up: purchased SignalChem; conditions: IRE1a 2 nM, tested as the salt named
Protocol: Selected compounds were serially diluted with DMSO in a non-binding black 384-well plate for a total of 15 ul in each well. 2 ul of the serially diluted compound or DMSO control were then added to new wells containing 98 ul of 1×CAB, for a total volume of 100 ul, 10 ul of which were then transferred to wells of a new plate. 5 ul of the diluted IRE1a was then added to each well. 5 ul of a […] XBP1 RNA probe was then added to each well.
Each probe contained a 5′ 6-FAM modification and a 3′ IOWA Black FQ modification.
A second FRET assay was performed to assess ATP-mediated inhibition. In this case, compounds and IRE1a were prepared and combined as discussed above, with the addition of ATP up to 1 mM final concentration. This mixture was incubated at room temperature for 60 minutes and then 5 ul of 400 nM XBP1 wildtype or mutant RNA probe was added.

IRE1a [2] = target: T1, IRE1a; assay: IRE1a Endoribonuclease Nanoluciferase Assay (XBP1 luciferase reporter in 293T cells); assay type: cell-based; set-up: endogenous in cells; host or cells: 293T; conditions: XBP1 nanoluciferase reporter in 293T cells, ER stressor; tested as the salt named
[3] = Metabolic assays of N,N-dimethyl compounds; assay type: in vitro ADME; conditions: data not shown
[4] = tested on: IRE1a-mediated XBP1 splicing; assay: Assay for target engagement in pancreas and salivary gland (RT-qPCR of XBP1 splicing); assay type: in vivo; conditions: mice, 30 mg/kg oral gavage, 6 hours, compared to control and Compound B
Protocol: Mice (n=3 per group) were orally gavaged with 30 mg/kg vehicle control or IRE1 inhibitors dissolved in H2O. After 6 hours, mice were euthanized and pancreas and salivary gland tissues were isolated, snap frozen on dry ice, and used for subsequent RT-qPCR analysis of beta-actin, XBP1s and total XBP1. Gene expression was evaluated by quantitative PCR for XBP1s and total XBP1 transcripts using the 2^(−ΔCT) method for calculating normalized gene expression. Gene expression levels were normalized to Actb transcripts. XBP1 splicing is calculated as XBP1s expression divided by total XBP1 expression.

293T cells = assay: Growth assay (cytotoxicity); assay type: cell-based, human; conditions: 2 day incubation
Protocol: A growth assay was performed to evaluate the compounds disclosed herein for cytotoxicity. […] 133.3 uL cDMEM was added to wells 1, 2, 3, 5, 6, and 7 in rows A, C, E and G of the dilution plate. Compounds were serially diluted leftwards in threefold dilutions (66.7 uL into 133.3 uL cDMEM). 20 μL of each dilution was transferred in duplicate (duplicates in vertical paired wells) to the cells plated in the 96-well plate shown in Table 5, to the total concentrations shown below. 200 uL cDMEM was added to media wells (wells G5-H8). The plate was then placed in a humidified chamber for a 2 day incubation, and then photographed (media was more yellow in wells with potent cell growth).

IRE1a/XBP1 pathway = assay: Assay for inhibition of endogenous XBP1 splicing in 293T cells with tunicamycin; assay type: cell-based, human; conditions: XBP1 splicing by qPCR
Protocol: Gene expression was evaluated by quantitative PCR for XBP1s and total XBP1 transcripts using the 2^(−ΔCT) method for calculating normalized gene expression. Gene expression levels were normalized to ACTB transcripts. XBP1 splicing was calculated as actin-normalized XBP1s expression divided by actin-normalized total XBP1 expression.

IRE1a [5] = target: T1, IRE1a; assay: IRE1a phosphorylation inhibition assay (immunoblot, tunicamycin-treated 293T cells); assay type: cell-based; set-up: endogenous in cells; host or cells: 293T; conditions: human 293T cells
Protocol: Inhibition of ER stress-induced IRE1a phosphorylation and XBP1s protein accumulation in human 293T cells was assessed. Immunoblot analysis was performed in human 293T cells lysates obtained from cells after exposure to the chemical ER stress-inducing agent tunicamycin, and optional treatment with Compound C. Lysates were probed with antibodies recognizing IRE1a, phosphorylated IRE1a, XBP1, or TATA-binding protein (TBP). TBP was blotted as a protein loading control. […] 20 nM was sufficient to reduce XBP1s protein levels below the limit of detection in this assay.

[6] = Bioavailability assay (mouse pharmacokinetic study); assay type: in vivo; conditions: IV 1 mg/kg, PO 30 mg/kg (Compound A PO 10 mg/kg)

T1 sequence (O75460 19-977): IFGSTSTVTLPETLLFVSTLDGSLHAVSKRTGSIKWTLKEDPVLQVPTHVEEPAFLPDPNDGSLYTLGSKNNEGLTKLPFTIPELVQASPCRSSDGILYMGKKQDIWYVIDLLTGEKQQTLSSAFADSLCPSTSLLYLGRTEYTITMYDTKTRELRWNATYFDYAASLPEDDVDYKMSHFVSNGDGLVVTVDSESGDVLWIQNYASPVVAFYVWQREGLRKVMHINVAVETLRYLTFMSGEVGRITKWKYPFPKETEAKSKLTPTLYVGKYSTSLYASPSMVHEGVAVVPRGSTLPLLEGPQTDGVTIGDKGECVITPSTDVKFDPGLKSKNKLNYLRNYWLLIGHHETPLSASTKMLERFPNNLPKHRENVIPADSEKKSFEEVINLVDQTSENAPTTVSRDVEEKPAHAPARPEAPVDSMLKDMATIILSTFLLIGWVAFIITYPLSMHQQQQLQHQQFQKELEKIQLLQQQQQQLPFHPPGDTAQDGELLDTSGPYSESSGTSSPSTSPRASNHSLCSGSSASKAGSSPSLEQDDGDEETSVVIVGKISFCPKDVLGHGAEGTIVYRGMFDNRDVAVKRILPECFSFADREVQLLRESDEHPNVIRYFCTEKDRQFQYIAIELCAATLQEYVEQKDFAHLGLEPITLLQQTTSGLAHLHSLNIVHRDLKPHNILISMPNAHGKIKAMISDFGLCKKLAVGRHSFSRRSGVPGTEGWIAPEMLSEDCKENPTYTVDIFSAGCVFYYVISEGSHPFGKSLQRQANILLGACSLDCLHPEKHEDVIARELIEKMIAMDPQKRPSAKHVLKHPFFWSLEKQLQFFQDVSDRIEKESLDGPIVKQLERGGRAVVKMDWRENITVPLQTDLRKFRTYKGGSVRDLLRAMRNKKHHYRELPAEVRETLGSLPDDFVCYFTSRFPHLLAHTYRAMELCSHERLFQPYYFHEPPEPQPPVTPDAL

SMILES	IC50 (IRE1a [1]) [nM]	EC50 (IRE1a [2]) [nM]	further results
CCc1cc(-c2ccc(NS(=O)(=O)c3ccccc3Cl)c(F)c2)cc2cnc(N[C@@H]3CC[C@H](N)[C@H](C)C3)nc12 [Compound 70, N-(4-(2-(((1R,3R,4S)-4-amino-3-methylcyclohexyl)amino)-8-ethylquinazolin-6-yl)-2-fluorophenyl)-2-chlorobenzene-sulfonamide]	< 5	< 5	
CCc1cc(-c2ccc(NS(=O)(=O)c3ccccc3Cl)nc2OC)cc2cnc(NC3CCC(N(C)C)CC3)nc12 (stereo not shown) [Compound D]			metabolic fate [3]: removal of the methyl groups; suppression of IRE1a-mediated XBP1 splicing in pancreas and salivary gland [4]: potently suppressed
N[C@H]1CC[C@@H](Nc2ncc3cc(-c4ccc(NS(=O)(=O)c5ccccc5Cl)c(F)c4)ccc3n2)C1 [Compound 80]	< 5	100 to 10000	
CCc1cc(-c2cnc(NS(=O)(=O)c3ccccc3Cl)cn2)cc2cnc(N[C@H]3CC[C@H](N)CC3)nc12 [Compound 25, N-(5-(2-(((1r,4r)-4-aminocyclohexyl)amino)-8-ethylquinazolin-6-yl)pyrazin-2-yl)-2-chlorobenzene-sulfonamide]	< 5	< 5	% Growth at 0.185 uM (293T cells; 0.185 uM): D (D: > 75% to ≤ 100%); % Growth at 0.5556 uM (293T cells): D (D: > 75% to ≤ 100%); % Growth at 1.667 uM (293T cells): D (D: > 75% to ≤ 100%); % Growth at 5 uM (293T cells): D (D: > 75% to ≤ 100%)
CCc1cc(-c2ccc(NS(=O)(=O)c3ccccc3Cl)nc2C)cc2cnc(N[C@H]3CC[C@H](N(C)C)CC3)nc12 [Compound 91, 2-chloro-N-(5-(2-(((1r,4r)-4-(dimethylamino)cyclohexyl)amino)-8-ethylquinazolin-6-yl)-6-methylpyridin-2-yl)benzenesulfonamide]	< 5	< 5	
CCc1cc(-c2ccc(NS(=O)(=O)c3ccccc3Cl)nc2C)cc2cnc(NC3CCC(N(C)C)CC3)nc12 (stereo not shown) [Compound C]			metabolic fate [3]: removal of the methyl groups; suppression of IRE1a-mediated XBP1 splicing in pancreas and salivary gland [4]: potently suppressed; shift in potency between Compound A and Compound C (IRE1a/XBP1 pathway): approximately 3.6 ×; concentration sufficient to reduce XBP1s protein levels below the limit of detection (IRE1a [5]): 20 nM; ER stress-induced IRE1a phosphorylation (IRE1a [5]; pre-incubation with compound): strongly repressed; accumulation of XBP1s protein (IRE1a [5]; pre-incubation with compound): completely abrogated
CCc1cc(-c2ccc(NS(=O)(=O)c3ccccc3Cl)nc2OC)cc2cnc(N[C@H]3CC[C@H](N)CC3)nc12 [Compound 37, N-(5-(2-(((1r,4r)-4-aminocyclohexyl)amino)-8-ethylquinazolin-6-yl)-6-methoxypyridin-2-yl)-2-chlorobenzene-sulfonamide]		< 5	% Growth at 0.5556 uM (293T cells): D (D: > 75% to ≤ 100%); % Growth at 1.667 uM (293T cells): C (C: > 50% to ≤ 75%); % Growth at 5 uM (293T cells): B (B: > 25% to ≤ 50%)
CCc1cc(-c2ccc(NS(=O)(=O)c3ccccc3Cl)nc2C)cc2cnc(N[C@H]3CC[C@H](N)CC3)nc12 [Compound A, N-(5-(2-(((1r,4r)-4-aminocyclohexyl)amino)-8-ethylquinazolin-6-yl)-6-methylpyridin-2-yl)-2-chlorobenzenesulfonamide]			oral bioavailability [6]: 4%
CCc1cc(-c2ccc(NS(=O)(=O)c3ccccc3Cl)c(F)c2)cc2cnc(N[C@H]3CCCNC3)nc12 [Compound 73, (S)-2-chloro-N-(4-(8-ethyl-2-(piperidin-3-ylamino)quinazolin-6-yl)-2-fluorophenyl) benzene-sulfonamide]	< 5	< 5	
CCc1cc(-c2ccc(NS(=O)(=O)c3ccccc3Cl)c(F)c2)cc2cnc(NC34CCC(N)(CC3)CC4)nc12 [Compound 87, N-(4-(2-((4-aminobicyclo[2.2. 2]octan-1-yl)-amino)-8-ethylquinazolin-6-yl)-2-fluorophenyl)-2-chlorobenzene-sulfonamide]		< 5	
COc1nc(NS(=O)(=O)c2ccccc2Cl)ccc1-c1cc(F)c2nc(N[C@H]3CC[C@H](N(C)C)CC3)ncc2c1 [Compound 148, 2-chloro-N-(5-(2-(((1r,4r)-4-(dimethylamino)cyclohexyl)amino)-8-fluoroquinazolin-6-yl)-6-methoxypyridin-2-yl)benzenesulfonamide]		< 5	
CCc1cc(-c2ccc(NS(=O)(=O)c3ccccc3Cl)c(F)c2)cc2cnc(N[C@H]3CC[C@H](NC(=O)[C@@H](N)C(C)C)CC3)nc12 [Compound 58, (S)-2-amino-N-((1r,4S)-4-((6-(4-((2-chlorophenyl)sulfonamido)-3-fluorophenyl)-8-ethylquinazolin-2-yl)amino)cyclohexyl)-3-methylbutanamide]	5 to 50	< 5	
CCc1cc(-c2ncc(NS(=O)(=O)c3ccccc3Cl)nc2OC)cc2cnc(N[C@H]3CC[C@H](N)CC3)nc12 [Compound 98, N-(5-(2-(((1r,4)-4-aminocyclohexyl)amino)-8-ethylquinazolin-6-yl)-6-methoxypyrazin-2-yl)-2-chlorobenzenesulfonamide]		< 5	
CCc1cc(-c2ncc(NS(=O)(=O)c3ccccc3Cl)cc2F)cc2cnc(N[C@H]3CC[C@H](N)CC3)nc12 [Compound 52, N-(6-(2-(((1r,4r)-4-aminocyclohexyl)amino)-8-ethylquinazolin-6-yl)-5-fluoropyridin-3-yl)-2-chlorobenzene-sulfonamide]		< 5	
CCc1cc(-c2cnc(NS(=O)(=O)c3ccccc3Cl)nc2OC)cc2cnc(N[C@H]3CC[C@H](N)CC3)nc12 [Compound 46, N-(5-(2-(((1r,4r)-4-aminocyclohexyl)amino)-8-ethylquinazolin-6-yl)-4-methoxypyrimidin-2-yl)-2-chlorobenzene-sulfonamide]		< 5	
